Mutagenic call data for six compounds are collected here from PubChem BioAssay AID1259407 (Chemical Carcinogenesis Research Information System (CCRIS), 2018).

In this series the test system is CCRIS mutagenicity, Ames/micronucleus/aberration tests. The series can be described thus: CCRIS mutagenicity studies.
Setting [1] is: Test System: AMES SALMONELLA TYPHIMURIUM, Strain/Indicator: TA98, Metabolic Activation: NONE, Method: STANDARD PLATE.
Setting [2] is: Test System: AMES SALMONELLA TYPHIMURIUM, Strain/Indicator: TA100, Metabolic Activation: NONE, Method: STANDARD PLATE.

Molecules are shown by their SMILES. Calls of active or inactive are those of the source. How the calls were made is not given here.

As to `O=C(Nc1ccc2c(c1)C=C(S(=O)(=O)O)/C(=N/Nc1ccc(N=Nc3ccc(S(=O)(=O)O)cc3)cc1S(=O)(=O)O)C2=O)Nc1ccc2c(c1)C=C(S(=O)(=O)O)/C(=N/Nc1ccc(N=Nc3ccc(S(=O)(=O)O)cc3)cc1S(=O)(=O)O)C2=O`, the mutagenic call is, setting by setting: (Test System: MOUSE LYMPHOMA, Strain/Indicator: L5178Y (TK+/TK-), Metabolic Activation: NONE, Method: SUSPENSION/PLATE) “inactive; negative. reevaluation of results: negative”; (Test System: MOUSE LYMPHOMA, Strain/Indicator: L5178Y (TK+/TK-), Metabolic Activation: RAT, LIVER, S-9, AROCLOR 1254, Method: SUSPENSION/PLATE) “inactive; negative. reevaluation of results: negative”.

With `Brc1ccc2c(c1)[C@@H]1O[C@@H]1[C@H]1CCCC[C@H]21`, the mutagenic call by setting is: under setting [1], “inactive; negative”; under setting [2], “inactive; negative”.

Turning to `ClCc1c2ccccc2c(CCl)c2ccccc12`, the mutagenic call (Test System: AMES SALMONELLA TYPHIMURIUM, Strain/Indicator: TA1537, Metabolic Activation: NONE, Method: STANDARD PLATE) is “active; positive”.

`Oc1ccc2c(ccc3[nH]c4ccc5ccccc5c4c32)c1`: the mutagenic call runs as follows: under setting [1], “inactive; negative”; (Test System: AMES SALMONELLA TYPHIMURIUM, Strain/Indicator: TA98, Metabolic Activation: RAT, LIVER, S-9, 3-METHYLCHOLANTHRENE, Method: STANDARD PLATE) “active; positive”; under setting [2], “inactive; negative”; (Test System: AMES SALMONELLA TYPHIMURIUM, Strain/Indicator: TA100, Metabolic Activation: RAT, LIVER, S-9, 3-METHYLCHOLANTHRENE, Method: STANDARD PLATE) “active; positive”; (Test System: AMES SALMONELLA TYPHIMURIUM, Strain/Indicator: TM677, Metabolic Activation: NONE, Method: PREINCUBATION) “inactive; negative”; (Test System: AMES SALMONELLA TYPHIMURIUM, Strain/Indicator: TM677, Metabolic Activation: RAT, LIVER, S-9, 3-METHYLCHOLANTHRENE (1%), Method: PREINCUBATION) “active; positive”. Besides, the mutagenic call reads like this: (Test System: AMES SALMONELLA TYPHIMURIUM, Strain/Indicator: TM677, Metabolic Activation: RAT, LIVER, S-9, 3-METHYLCHOLANTHRENE (10%), Method: PREINCUBATION) “active; positive”; (Test System: AMES SALMONELLA TYPHIMURIUM, Strain/Indicator: TM677, Metabolic Activation: RAT, LIVER, S-9, AROCLOR 1254 (10%), Method: PREINCUBATION) “active; positive”.

Turning to `C[N+](C)(C)CCO`, the mutagenic call (Test System: AMES SALMONELLA TYPHIMURIUM, Strain/Indicator: TA98, Metabolic Activation: NONE, Method: PREINCUBATION) is “inactive; negative”; the mutagenic call (Test System: AMES SALMONELLA TYPHIMURIUM, Strain/Indicator: TA98, Metabolic Activation: RAT, LIVER, S-9, PHENOBARBITAL AND BETA-NAPHTHOFLAVONE, Method: PREINCUBATION) is “inactive; negative”; the mutagenic call (Test System: AMES SALMONELLA TYPHIMURIUM, Strain/Indicator: TA100, Metabolic Activation: NONE, Method: PREINCUBATION) was “inactive; negative”; the mutagenic call (Test System: AMES SALMONELLA TYPHIMURIUM, Strain/Indicator: TA100, Metabolic Activation: RAT, LIVER, S-9, PHENOBARBITAL AND BETA-NAPHTHOFLAVONE, Method: PREINCUBATION) is “inactive; negative”; the mutagenic call (Test System: AMES SALMONELLA TYPHIMURIUM, Strain/Indicator: TA102, Metabolic Activation: NONE, Method: PREINCUBATION) was “inactive; negative”; the mutagenic call (Test System: AMES SALMONELLA TYPHIMURIUM, Strain/Indicator: TA102, Metabolic Activation: RAT, LIVER, S-9, PHENOBARBITAL AND BETA-NAPHTHOFLAVONE, Method: PREINCUBATION) was “inactive; negative”. Besides, the mutagenic call was “inactive; negative” (Test System: AMES SALMONELLA TYPHIMURIUM, Strain/Indicator: TA104, Metabolic Activation: NONE, Method: PREINCUBATION); “inactive; negative” (Test System: AMES SALMONELLA TYPHIMURIUM, Strain/Indicator: TA104, Metabolic Activation: RAT, LIVER, S-9, PHENOBARBITAL AND BETA-NAPHTHOFLAVONE, Method: PREINCUBATION); “inactive; negative” (Test System: AMES SALMONELLA TYPHIMURIUM, Strain/Indicator: TA1535, Metabolic Activation: NONE, Method: PREINCUBATION); “inactive; negative” (Test System: AMES SALMONELLA TYPHIMURIUM, Strain/Indicator: TA1535, Metabolic Activation: RAT, LIVER, S-9, PHENOBARBITAL AND BETA-NAPHTHOFLAVONE, Method: PREINCUBATION); “inactive; negative” (Test System: AMES SALMONELLA TYPHIMURIUM, Strain/Indicator: TA1537, Metabolic Activation: NONE, Method: PREINCUBATION); “inactive; negative” (Test System: AMES SALMONELLA TYPHIMURIUM, Strain/Indicator: TA1537, Metabolic Activation: RAT, LIVER, S-9, PHENOBARBITAL AND BETA-NAPHTHOFLAVONE, Method: PREINCUBATION). Besides, the mutagenic call by setting is: (Test System: E. COLI, Strain/Indicator: WP2UVRA/PKM101, Metabolic Activation: NONE, Method: PREINCUBATION) “inactive; negative”; (Test System: E. COLI, Strain/Indicator: WP2UVRA/PKM101, Metabolic Activation: RAT, LIVER, S-9, PHENOBARBITAL AND BETA-NAPHTHOFLAVONE, Method: PREINCUBATION) “inactive; negative”; (Test System: E. COLI, Strain/Indicator: WP2UVRA, Metabolic Activation: NONE, Method: PREINCUBATION) “inactive; negative”; (Test System: E. COLI, Strain/Indicator: WP2UVRA, Metabolic Activation: RAT, LIVER, S-9, PHENOBARBITAL AND BETA-NAPHTHOFLAVONE, Method: PREINCUBATION) “inactive; negative”.

On to `N=C(N)c1ccc(-c2cc3ccc(C(=N)N)cc3s2)cc1`, for which the mutagenic call is “inactive; negative” under setting [1]; “inactive; negative” (Test System: AMES SALMONELLA TYPHIMURIUM, Strain/Indicator: TA98, Metabolic Activation: RAT, LIVER, S-9, PHENOBARBITAL, Method: STANDARD PLATE); “inactive; negative” under setting [2]; “inactive; negative” (Test System: AMES SALMONELLA TYPHIMURIUM, Strain/Indicator: TA100, Metabolic Activation: RAT, LIVER, S-9, PHENOBARBITAL, Method: STANDARD PLATE).
